Earlier results in US20240408209A1, “Peptide-Protected Gold Nanocluster and Use in Photodynamic Therapy” (Queen's University at Kingston, priority 2023, published 2024).

Conditions: positive control

SMILES: CN(C)c1ccc2nc3ccc(=[N+](C)C)cc-3sc2c1 [Methylene blue]
- QY of photochemical generation of 1O2: 0.52
